60 molecules from patent US20190110476A1, “NOVEL ISOTHIAZOLAMIDES, PROCESSES FOR THEIR PREPARATION AND THEIR USE AS FUNGICIDES” (priority 2014, published 2019) can be followed below.

Marks after values point to notes of the source that are not given here.

A short description of one data set: Measurement of LogP values by HPLC on reversed phase columns (EEC directive 79/831 Annex V.A8). It is filed as physicochemical.
Settings: not given
As for the experimental part: The abbreviations and numerations of the substituent positions used in the context of the present invention and in the following Tables are explained in detail in the section Examples hereinafter. Also, the LogP values indicated in the following Tables are explained in detail in the section Examples hereinafter. In case LogP values for different diastereoisomers of a specific compound are […], said LogP values are […] by a “+”. […] Measurement of LogP values was performed according to EEC directive 79/831 Annex V.A8 by HPLC (High Performance Liquid Chromatography) on reversed phase columns with the following methods: […] Lambda-max-values were determined using UV-spectra from 200 nm to 400 nm and the peak values of the chromatographic signals
For `COc1ccc(CNc2nsc(C(=O)NCCc3ccccc3F)c2Cl)cc1` [I-963], the LogP was 3.74[a].
Take `Cc1ccc(S(C)=Nc2nsc(C(=O)NCC3CCCCC3)c2F)cc1` (stereo not shown) [II-054]: the “LogP [a]” value was 3.10^[a].
Regarding `O=C(NCc1ncc(C(F)(F)F)cc1Cl)c1cc(N(Cc2ccccc2)Cc2ccccc2)ns1` [I-162], the LogP was 4.98[a].
For the molecule `Nc1nsc(C(=O)NCc2ccc(F)cc2)c1Cl` [I-025], the LogP was 1.83[a].
Still for that read-out and setting: then `CC1CC(C)(C)c2cccc(NC(=O)c3snc(N)c3Cl)c21` (stereo not shown) [I-885], with 3.62[a]; and `Cc1c(N)nsc1C(=O)NCc1ccc(C(F)(F)F)cc1F` [I-104], with 2.18[a].
With `O=C(Nc1ccccc1)c1snc(N=C(c2ccccc2)c2ccccc2)c1Cl` [II-107], the “LogP [a]” value was 4.62^[a].
Regarding `O=C(NC1CCCC2CCCCC21)c1snc(NCC(F)(F)F)c1NCC(F)(F)F` (stereo not shown) [I-631], the LogP is 4.82[a].
For `Nc1nsc(C(=O)NCC2CCCC(Cl)C2)c1Cl` (stereo not shown) [I-1580], the LogP was 2.23[a].
Take `C=CCNc1nsc(C(=O)NCc2ccccc2F)c1Cl` [I-071]: the LogP is 2.89[a].
On to `COc1ccc(CNc2nsc(C(=O)NS(C)(=O)=O)c2Cl)cc1` [I-883], for which the LogP was 1.86[a].
On the same count and under the same terms, as for `O=C(c1cc(NCc2ccccc2)ns1)N(Cc1cc(Cl)ccc1F)C1CC1` [I-1000], the figure is 4.06[a]; as for `Nc1nsc(C(=O)NCC2CCC(O)C2)c1Cl` (stereo not shown) [I-658], 0.72[a].
As to `O=C(NCC1CCCCC1)c1snc(N=S2CCCCC2)c1Cl` [II-088], the “LogP [a]” value was 2.60^[a].
As for `O=C(NCc1ccccc1F)c1snc(Nc2ccc(F)cc2)c1Cl` [I-059], the LogP was 3.68[a].
Same read-out and setting: as for `COc1ccc(CNc2nsc(C(=O)NCC34CCC(CC3)C4)c2Cl)cc1` [I-739], the figure is 4.29[a].
Same read-out and setting: as for `Nc1nsc(C(=O)N(c2ccc(F)cc2F)C2CC2)c1Cl` [I-958], the figure is 2.39[a]; as for `O=C(NCc1ccc(Cl)cc1)c1cc(N(Cc2ccccc2)Cc2ccccc2)ns1` [I-314], 4.85[a].
`Cc1cc(CNC(=O)c2snc(N)c2Cl)ccc1F` [I-349]: the LogP is 2.28[a].
Same read-out and setting: as for `COc1ccc(CNc2nsc(C(=O)NOc3ccccc3)c2Cl)cc1` [I-1031], the figure is 3.17[a].
Still for that read-out and setting: as for `COc1ccc(CNc2nsc(C(=O)Nc3ccc(Cl)cc3)c2Cl)cc1` [I-868], the figure is 4.21[a].
With `Cc1ccc(S(C)=Nc2nsc(C(=O)NCc3cc(F)c(F)cc3F)c2F)cc1` (stereo not shown) [II-073], the “LogP [a]” value is 2.87^[a].
For the molecule `Cc1ccc(C)c(CNC(=O)c2snc(N)c2Cl)c1` [I-326], the LogP was 2.50[a].
`O=C(NCC1CCCCO1)c1snc(N=C(c2ccccc2)c2ccccc2)c1Cl` (stereo not shown) [II-008]: the “LogP [a]” value was 4.55^[a].
Consider `Nc1nsc(C(=O)Nc2cc(F)cc(F)c2)c1Cl` [I-866], for which the LogP is 2.54[a].
Same read-out and setting: then `COc1ccc(CNc2nsc(C(=O)N(Cc3ccccc3C(C)C)C3CC3)c2Cl)cc1` [I-871], with 4.71[a]; and `COc1ccc(CNc2nsc(C(=O)NCC3CCC(C)CC3)c2Cl)cc1` (stereo not shown) [I-675], with 4.56[a]; and `Nc1nsc(C(=O)NCC2=CCCCC2)c1Cl` [I-089], with 2.30[a].
Same read-out and setting: then `Nc1nsc(C(=O)NCCc2ccccc2Cl)c1Cl` [I-895], with 2.41[a].
On to `O=C(NC1CCCC2CCCCC21)c1snc(Cl)c1Cl` (stereo not shown) [E-II-026], for which the “LogP [a]” value is 5.43^[a].
On to `Cc1c(N)nsc1C(=O)NCc1ccc(F)cc1F` [I-041], for which the LogP was 1.64[a].
As to `O=C(NCc1cccc(Cl)c1)c1cc(N(Cc2ccccc2)Cc2ccccc2)ns1` [I-283], the LogP was 4.71[a].
Same read-out and setting: then `COc1ccc(CNc2nsc(C(=O)NCc3ccnc(OC)c3)c2Cl)cc1` [I-1204], with 2.78[a].
Regarding `O=C(NCc1cc(F)c(F)c(F)c1)c1snc(N=S2CCCC2)c1Cl` [II-045], the “LogP [a]” value was 1.96^[a].
For `COc1ccc(CNc2nsc(C(=O)Nc3ccc(F)cc3)c2Cl)cc1` [I-858], the LogP was 3.76[a].
On to `CCC(C)C(C)N(C(=O)c1snc(N)c1Cl)C1CC1` (stereo not shown) [I-901], for which the LogP is 3.00[a].
Turning to `Nc1nsc(C(=O)N(Cc2ccccc2)C2CC2)c1Cl` [I-183], the LogP was 2.41[a].
For `CCC(=O)Nc1nsc(C(=O)NCc2ccc(C#N)cc2)c1Cl` [I-811], the LogP was 1.54[a].
The same measure, in the same setting: as for `N#CC(NC(=O)c1snc(N)c1Br)C1CCCCC1` (stereo not shown) [I-833], the figure is 2.21[a].
Take `CC1(C)C2CCC1(C)C(NC(=O)c1snc(Cl)c1Cl)C2` (stereo not shown) [E-II-017]: the “LogP [a]” value is recorded as 5.02 and the “LogP [b]” value is reported as 4.96.
`COc1ccc(Nc2nsc(C(=O)NCc3ccccc3F)c2Cl)cc1` [I-060]: the LogP is 3.46[a].
Still for that read-out and setting: then `CC1OC(C)(C)c2cccc(NC(=O)c3snc(N)c3Cl)c21` (stereo not shown) [I-879], with 2.28[a].
The same measure, in the same setting: as for `CC1CCCC(C)(C)C1CNC(=O)c1snc(N)c1Cl` (stereo not shown) [I-083], the figure is 3.54[a]; as for `CCc1c(CNC(=O)c2snc(NCc3ccc(OC)cc3)c2Cl)cnn1CC` [I-1333], 2.82[a]; as for `CC1(C)CCCCC1N(C(=O)c1snc(N)c1Cl)C1CC1` (stereo not shown) [I-863], 3.30[a].
The same measure, in the same setting: as for `COc1ccc(CNc2nsc(C(=O)NC(C#N)c3ccc(F)c(F)c3)c2Cl)cc1` (stereo not shown) [I-1326], the figure is 3.61[a].
As to `O=C(NCCC1CCCCC1)c1snc(Cl)c1Cl` [E-II-033], the “LogP [a]” value was 4.40^[a].
Take `CCn1ncc(CNC(=O)c2snc(NCc3ccc(OC)cc3)c2Cl)c1C` [I-1237]: the LogP is 2.59[a].
`COc1ccc(CNc2nsc(C(=O)NCc3cnc(Cl)cn3)c2Cl)cc1` [I-1309]: the LogP is 2.98[a].
On to `Cc1ccc(S(C)=Nc2nsc(C(=O)NCc3ccc(F)c(F)c3F)c2F)cc1` (stereo not shown) [II-077], for which the “LogP [a]” value is 2.73^[a].
`O=C(NCC1CCCCC1)c1snc(NCCCO)c1Cl` [I-676]: the LogP was 2.46[a].
For `COc1ccc(CNc2nsc(C(=O)NC3CCC(C(C)(C)C)CC3)c2Cl)cc1` (stereo not shown) [I-1252], the LogP is 5.51[a].
As to `O=C(NCc1ccc(F)c(F)c1F)c1snc(N=S2CCCC2)c1Cl` [II-048], the “LogP [a]” value was 1.83^[a].
Turning to `O=C(NCC1CCCCO1)c1snc(Cl)c1Cl` (stereo not shown) [E-II-010], the “LogP [a]” value is 2.87^[a].
As for `O=C(NCC1CCCCC1)c1cc(N(Cc2ccccc2)Cc2ccccc2)ns1` [I-540], the LogP was 5.22[a].
Turning to `Nc1nsc(C(=O)NCc2ccc(Cl)cc2Cl)c1Cl` [I-018], the LogP is 2.62[a].
For the molecule `Nc1nsc(C(=O)NCC2CCCCC2Cl)c1Cl` (stereo not shown) [I-821], the LogP is 2.44[a].
Same read-out and setting: then `COc1ccc(CNc2nsc(C(=O)NCC3CCCCCC3)c2Cl)cc1` [I-045], with 4.69[a].

Staying with this data set, now noted: HPLC LC-UV, acidic range, 0.1% formic acid in water and acetonitrile as eluent.
Regarding `O=C(NCC1CCCCC1)c1snc(N=C(c2ccccc2)c2ccccc2)c1Cl` [II-002, 4-chloro-N-(cyclohexylmethyl)-3-[(diphenylmethylene)amino]isothiazole-5-carboxamide], the chromatographic logP came out at 5.65.
For `O=C(O)c1snc(N(Cc2ccccc2)Cc2ccccc2)c1C(F)F` [E-VIII-009, 3-(dibenzylamino)-4-(difluoromethyl)-1,2-thiazole-5-carboxylic acid], the chromatographic logP is 3.78.
